Publication PMC9532951, “Identification and characterization of a novel SNAT2 (SLC38A2) inhibitor reveals synergy with glucose transport inhibition in cancer cells” (Frontiers in Pharmacology, 2022)
Several values for one entry are separate records, joined by “and”; a condition that tells them apart may be missing. Equal values may be shown once.

Assays:
[1] = system: SNAT1 and SNAT2; assay: FMP assay: inhibition of glutamine-induced membrane depolarisation in amino acid depleted HCC1806 cells; assay type: cell-based, human; conditions: FMP assay, top hit compounds from the HTS, 9-point dose-response, n = 6
Procedure: (§1) The FLIPR Membrane Potential Blue Explorer Kit (Molecular Devices) was used to characterise inhibitors and to optimise a high-throughput compound screen. Cells were seeded at approximately 60,000 cells/well on a 96-well plate and allowed to attach and grow overnight in a cell incubator. […] Cells were then washed once with mHBSS and incubated with 50 µl of the mHBSS-resuspended FMP assay dye and 50 µl of mHBSS (with or without inhibitors) and incubated at room temperature for 30 min. The plate was then placed in an EnSpire Multimode plate reader (PerkinElmer) and four sequential measurements of fluorescence were recorded as a baseline reference. Immediately after the baseline measurements were taken, 25 µl of 5 mM glutamine dissolved in mHBSS was injected into each well and the plate was shaken orbitally for 5 s before a series of consecutive fluorescence measurements were taken. The excitation wavelength was set to 530 nm and the emission was detected at 565 nm. The Δ fluorescent signal reported in the figures was taken 30 s after substrate addition. After the assay was complete, the liquid content of the plate was carefully removed, and the cell monolayer inspected to ensure it remained intact throughout the course of the assay.
IC50 were calculated using equation y=ymax(1−x/x+IC50)

[2] = system: SNAT1/2; assay: FMP assay: depolarisation by amino acid substrates in amino acid depleted HCC1806 cells; assay type: cell-based, human; conditions: for FMP fluorescence reading: amino acid 1 mM final; for FMP response as substrate: 1 mM
Procedure: as §1, with “The Δ fluorescent signal reported in the figures was taken 30 s after substrate addition.” left out

IC50 [1]	Compound	FMP fluorescence reading ([2]; t=0 s)	FMP fluorescence reading ([2]; t=15 s)	FMP fluorescence reading ([2]; t=30 s)	FMP fluorescence reading ([2]; t=45 s)	FMP fluorescence reading ([2]; t=60 s)	FMP fluorescence reading ([2]; t=75 s)	FMP fluorescence reading ([2]; t=90 s)	FMP fluorescence reading ([2]; t=105 s)	FMP fluorescence reading ([2]; t=120 s)	FMP fluorescence reading ([2]; t=135 s)	FMP fluorescence reading ([2]; t=-15 s)	FMP fluorescence reading ([2]; t=-30 s, replicates 1-3)	FMP response as substrate [2]
18.4 µM	Cc1sc2nc(CN3CCC(C)CC3)nc(N3CCC(C)CC3)c2c1C [Compound 56_C]	–	–	–	–	–	–	–	–	–	–	–	–	–
114 µM	COC(=O)c1ccc(C(=O)N2CCc3sccc3C2c2ccccc2)s1 (stereo not drawn) [Compound 57_C]	–	–	–	–	–	–	–	–	–	–	–	–	–
–	N[C@@H](CCC(=O)O)C(=O)O [Glutamate]	60032 and 51875 and 43598	69207 and 54669 and 51909	69328 and 57256 and 51957	69976 and 58306 and 52382	70448 and 59203 and 52416	70747 and 59679 and 52622	70473 and 59687 and 53012	70925 and 60367 and 52735	71220 and 60249 and 53084	71259 and 60330 and 52832	59967 and 51788 and 43666	60239 and 51751 and 43455	–
–	NCC(=O)O [Glycine]	44899 and 49024 and 38114	85173 and 99097 and 84032	91215 and 103676 and 87874	94947 and 105684 and 90110	97113 and 106636 and 90762	98961 and 107619 and 91458	100150 and 108044 and 90972	99878 and 107571 and 90946	99987 and 106851 and 90990	99765 and 106361 and 89148	44724 and 48839 and 38339	44368 and 48981 and 38101	strongest response
–	CC(C)C[C@H](N)C(=O)O [Leucine]	61522 and 51455 and 48802	88098 and 66521 and 74458	89784 and 72558 and 75976	91395 and 75844 and 77135	92447 and 78186 and 77607	93485 and 79454 and 77906	93344 and 79903 and 78344	93716 and 80571 and 78223	93656 and 80831 and 77995	93514 and 80690 and 77322	61387 and 51586 and 49166	61314 and 51367 and 48860	weak signal
–	N[C@@H](Cc1ccccc1)C(=O)O [Phenylalanine]	56591 and 55422 and 43224	73580 and 72052 and 58378	74725 and 73471 and 59296	75492 and 73818 and 59645	76233 and 74445 and 59921	76773 and 74969 and 60608	77388 and 75496 and 60901	77493 and 75802 and 61169	77831 and 75902 and 61002	78078 and 75738 and 60891	56780 and 55712 and 43156	56746 and 55392 and 43055	weak signal
–	O=C(O)[C@@H]1CCCN1 [Proline]	59025 and 53021 and 43095	104996 and 86952 and 88962	110697 and 98531 and 91551	113693 and 105110 and 94295	116376 and 109453 and 95282	118353 and 112938 and 95197	118882 and 114320 and 95021	119266 and 115087 and 95127	119471 and 115780 and 93913	119506 and 115226 and 93809	58886 and 52711 and 43194	59126 and 52759 and 43032	strongest response
